Experimental findings from patent US9873696B2, “Neprilysin inhibitors” (THERAVANCE BIOPHARMA R&D IP, LLC, priority 2010, dated 2018) are described below.

The test deals with T1, human NEP (Homo sapiens, UniProt P08473).
T1 construct: purchased R&D Systems, Minneapolis, Minn; 1182-ZN
The test is described as follows: In vitro enzyme inhibition assay at human NEP (Assay 1). In kind it is biochemical. Conditions: recombinant enzyme, fluorogenic peptide substrate, 37° C. As for the experimental part:
In Vitro Assays for the Quantitation of Inhibitor Potencies (IC50) at Human and Rat NEP, and Human ACE
The inhibitory activities of compounds at human and rat neprilysin (EC 3.4.24.11; NEP) and human angiotensin converting enzyme (ACE) were determined using in vitro assays as described below.
Recombinant human NEP and recombinant human ACE were obtained commercially (R&D Systems, Minneapolis, Minn., catalog numbers 1182-ZN and 929-ZN, respectively). The fluorogenic peptide substrate Mca-D-Arg-Arg-Leu-Dap-(Dnp)-OH (Medeiros et al. (1997) Braz. J. Med. Biol. Res. 30:1157-62; Anaspec, San Jose, Calif.) and Abz-Phe-Arg-Lys(Dnp)-Pro-OH (Araujo et al. (2000) Biochemistry 39:8519-8525; Bachem, Torrance, Calif.) were used in the NEP and ACE assays respectively.
The assays were performed in 384-well white opaque plates at 37° C. using the fluorogenic peptide substrates at a concentration of 10 μM in Assay Buffer (NEP: 50 mM HEPES, pH 7.5, 100 mM NaCl, 0.01% polyethylene glycol sorbitan monolaurate (Tween-20), 10 μM ZnSO4; ACE: 50 mM HEPES, pH 7.5, 100 mM NaCl, 0.01% Tween-20, 1 μM ZnSO4).
Test compounds were assayed over the range of concentrations from […] to 20 μM. Test compounds were added to the enzymes and incubated for 30 minute at 37° C. prior to initiating the reaction by the addition of substrate. Reactions were terminated after 20 minutes of incubation at 37° C. by the addition of glacial acetic acid to a final concentration of 3.6% (v/v).
Plates were read on a fluorometer with excitation and emission wavelengths set to 320 nm and 405 nm, respectively. Inhibition constants were obtained by nonlinear regression of the data using the equation (GraphPad Software, Inc., San Diego, Calif.): v=v0/[1+(I/K′)] where v is the reaction rate, v0 is the uninhibited reaction rate, I is the inhibitor concentration and K′ is the apparent inhibition constant.
Compounds of the invention were tested in this assay and found to have pKi values at human NEP as follows.

T1 sequence (P08473 whole entry): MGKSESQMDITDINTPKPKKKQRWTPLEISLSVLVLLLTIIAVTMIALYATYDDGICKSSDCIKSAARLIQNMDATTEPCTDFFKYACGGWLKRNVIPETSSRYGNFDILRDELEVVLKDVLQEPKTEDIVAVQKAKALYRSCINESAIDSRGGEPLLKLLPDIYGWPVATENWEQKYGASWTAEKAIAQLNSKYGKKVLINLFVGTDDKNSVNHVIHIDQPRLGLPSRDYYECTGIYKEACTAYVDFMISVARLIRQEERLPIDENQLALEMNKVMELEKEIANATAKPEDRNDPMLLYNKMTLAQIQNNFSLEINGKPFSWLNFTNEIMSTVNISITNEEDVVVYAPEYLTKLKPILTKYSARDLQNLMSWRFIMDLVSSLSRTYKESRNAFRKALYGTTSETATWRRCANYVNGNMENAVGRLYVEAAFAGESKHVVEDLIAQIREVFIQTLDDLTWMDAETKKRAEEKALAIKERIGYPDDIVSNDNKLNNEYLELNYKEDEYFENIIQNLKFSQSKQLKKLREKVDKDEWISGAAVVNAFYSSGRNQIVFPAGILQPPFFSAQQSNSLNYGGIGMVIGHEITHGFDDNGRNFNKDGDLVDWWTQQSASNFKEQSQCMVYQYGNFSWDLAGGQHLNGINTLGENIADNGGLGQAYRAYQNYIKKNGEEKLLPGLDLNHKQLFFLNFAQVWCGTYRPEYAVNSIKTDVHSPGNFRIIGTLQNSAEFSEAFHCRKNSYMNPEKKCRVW

Usually Ki stands for the equilibrium dissociation constant of an inhibitor or competing ligand from its target. `CCCCc1cc(C(=O)NN(Cc2ccc(-c3cccc(Cl)c3)cc2)C[C@@H](O)C(=O)O)[nH]n1` [Example 4-22, (R)-3-[N′-(5-Butyl-2H-pyrazole-3-carbonyl)-N-(3′-chlorobiphenyl-4-ylmethyl)-hydrazino]-2-hydroxy-propionic acid]: the Ki is not above 1 nM.
In the case of `O=C(O)c1cc(C(=O)NN(Cc2ccc(-c3cccc(Cl)c3)cc2)C[C@@H](O)C(=O)O)[nH]n1` [Example 4-23, 5-[N′-((R)-2-Carboxy-2-hydroxy-ethyl)-N′-(3′-chlorobiphenyl-4-ylmethyl)-hydrazinocarbonyl]-1H-pyrazole-3-carboxylic acid], the Ki was not above 1 nM.
Consider `O=C(NN(Cc1ccc(-c2cccc(Cl)c2)cc1)C[C@@H](O)C(=O)O)c1cc(-c2cnccn2)n[nH]1` [Example 4-24, (R)-3-[N-(3′-Chlorobiphenyl-4-ylmethyl)-N′-(5-pyrazin-2-yl-2H-pyrazole-3-carbonyl)-hydrazino]-2-hydroxy-propionic acid], for which the inhibitory constant (Ki) is 1.26 to 10 nM.
Take `CC(=O)c1cc(C(=O)NN(Cc2ccc(-c3cccc(Cl)c3)cc2)C[C@@H](O)C(=O)O)[nH]n1` [Example 4-25, (R)-3-[N′-(5-Acetyl-2H-pyrazole-3-carbonyl)-N-(3′-chlorobiphenyl-4-ylmethyl)-hydrazino]-2-hydroxy-propionic acid]: the Ki was not above 1 nM.
In the case of `COCc1cc(C(=O)NN(Cc2ccc(-c3cccc(Cl)c3)cc2)C[C@@H](O)C(=O)O)[nH]n1` [Example 4-26, (R)-3-[N-(3′-Chlorobiphenyl-4-ylmethyl)-N′-(5-methoxymethyl-2H-pyrazole-3-carbonyl)-hydrazino]-2-hydroxy-propionic acid], the Ki was 1.26 to 10 nM.
With `CC(C)(O)c1cc(C(=O)NN(Cc2ccc(-c3cccc(Cl)c3)cc2)C[C@@H](O)C(=O)O)[nH]n1` [Example 4-27, (R)-3-{N-(3′-Chlorobiphenyl-4-ylmethyl)-N′-[5-(1-hydroxy-1-methyl-ethyl)-2H-pyrazole-3-carbonyl]-hydrazino}-2-hydroxy-propionic acid], the inhibition constant Ki was 1.26 to 10 nM.
The result for `O=C(NN(Cc1ccc(-c2cccc(Cl)c2)cc1)C[C@@H](O)C(=O)O)c1cnc(-c2ccccc2)o1` [Example 4-28, (R)-3-[N-(3′-Chlorobiphenyl-4-ylmethyl)-N′-(2-phenyl-oxazole-5-carbonyl)-hydrazino]-2-hydroxy-propionic acid] reads 12.6 to 100 nM.
The result for `O=C(NN(Cc1ccc(-c2cccc(Cl)c2)cc1)C[C@@H](O)C(=O)O)c1cc(-c2ccccc2Cl)no1` [Example 4-29, (R)-3-{N-(3′-Chlorobiphenyl-4-ylmethyl)-N′-[3-(2-chlorophenyl)-isoxazole-5-carbonyl]-hydrazino}-2-hydroxy-propionic acid] reads not above 1 nM; that for `COc1ccccc1-c1cc(C(=O)NN(Cc2ccc(-c3cccc(Cl)c3)cc2)C[C@@H](O)C(=O)O)on1` [Example 4-30, (R)-3-{N-(3′-Chlorobiphenyl-4-ylmethyl)-N′-[3-(2-methoxy-phenyl)-isoxazole-5-carbonyl]-hydrazino}-2-hydroxy-propionic acid], 1.26 to 10 nM; that for `O=C(NN(Cc1ccc(-c2cccc(Cl)c2)cc1)C[C@@H](O)C(=O)O)c1cc(-c2ccccc2F)no1` [Example 4-31, (R)-3-{N-(3′-Chlorobiphenyl-4-ylmethyl)-N′-[3-(2-fluorophenyl)-isoxazole-5-carbonyl]-hydrazino}-2-hydroxy-propionic acid], 1.26 to 10 nM.
Regarding `COc1cc(C(=O)NN(Cc2ccc(-c3cccc(Cl)c3)cc2)C[C@@H](O)C(=O)O)on1` [Example 4-32, (R)-3-[N-(3′-Chlorobiphenyl-4-ylmethyl)-N′-(3-methoxy-isoxazole-5-carbonyl)-hydrazino]-2-hydroxy-propionic acid], the inhibition constant (Ki) was 1.26 to 10 nM.
Consider `O=C(NN(Cc1ccc(-c2cccc(Cl)c2)cc1)C[C@@H](O)C(=O)O)c1cnc(O)nc1` [Example 4-34, (R)-3-[N-(3′-Chlorobiphenyl-4-ylmethyl)-N′-(2-hydroxy-pyrimidine-5-carbonyl)-hydrazino]-2-hydroxy-propionic acid], for which the Ki was not above 1 nM.
